The results in this text go back to patent US5599793A, “Antithromobotic agents” (Eli Lilly and Company, priority 1995, dated 1997).

Structures are written as SMILES.

One data set addresses T1, Trypsin (Bos taurus, UniProt P00760).
T1 construct: Bovine trypsin is purchased; purchased Worthington Biochemicals, Freehold, N.J
T1 sequence (P00760 24-246): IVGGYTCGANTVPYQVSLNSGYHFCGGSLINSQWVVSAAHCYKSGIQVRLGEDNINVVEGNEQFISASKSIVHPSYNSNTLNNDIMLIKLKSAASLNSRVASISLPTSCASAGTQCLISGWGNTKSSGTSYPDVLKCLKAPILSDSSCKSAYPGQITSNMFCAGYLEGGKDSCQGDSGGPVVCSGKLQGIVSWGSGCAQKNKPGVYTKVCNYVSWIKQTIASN
Description: Serine protease selectivity, chromogenic substrate (Kass), trypsin. The class given is biochemical, bovine. The settings on record: substrate N-Benzoyl-Phe-Val-Arg-p-nitroanilide.

For the next data set, the target named is T2, Plasmin (Homo sapiens, UniProt P00747).
T2 construct: Human plasmin is purchased; purchased Boehringer Mannheim, Indianapolis, Ind
Description: Serine protease selectivity, chromogenic substrate (Kass), plasmin. The class given is biochemical. The settings on record: substrate H-D-Val-Leu-Lys-p-nitroanilide.

In another data set the target is T3, t-PA (Homo sapiens, UniProt P00750).
T3 construct: purchased American Diagnostica, Greenwich, Conn
Description: Serine protease selectivity, chromogenic substrate (Kass), t-PA. As to conditions: substrate H-D-Ile-Pro-Arg-p-nitroanilide. It is filed as biochemical.

Data set [1] in a line: Index of bioavailability (% Relative Activity from plasma TT AUC, oral vs i.v.). The settings on record: dose-adjusted AUC of plasma TT, p.o. versus i.v. bolus. It is filed as in vivo. On the procedure:
Plasma thrombin time (TT) and activated partial thromboplastin time (APTT) are measured with a fibrometer. Blood is sampled from a jugular catheter and collected in syringe containing sodium citrate (3.8%, 1 part to 9 parts blood). To measure TT, rat plasma (0.1 mL) is mixed with saline (0.1 mL) and bovine thrombin (0.1 mL, 30 U/mL in TRIS buffer; Parke Davis) at 37° C. For APTT, plasma (0.1 mL) and APTT solution (0.1 mL, Organon Teknika) are incubated for 5 minutes (37° C.) and CaCl2 (0.01 mL, 0.025M) is added to start coagulation. Assays are done in duplicate and averaged.
A measure of bioactivity, plasma thrombin time (TT), served as a substitute for the assay of parent compound on the assumption that increments in TT resulted from thrombin inhibition by parent only. The time course of the effect of the thrombin inhibitor upon TT is determined after i.v. bolus administration to anesthetized rats and after oral treatment of fasted conscious rats. Due to limitations of blood volume and the number of points required to determine the time course from time of treatment to the time when the response returned to pretreatment values, two populations of rats are used. Each sample population represented alternating sequential time points. The average TT over the time course is used to calculate area under the curve (AUC). The index of bioavailability is calculated by the formula shown below and is expressed as percent relative activity.
The area under the curve (AUC) of the plasma TT time course is determined and adjusted for the dose. This index of bioavailability is termed "% Relative Activity" and is calculated as [formula] Compounds
Compound solutions are prepared fresh daily in normal saline and are injected as a bolus or are infused starting 15 minutes before and continuing throughout the experimental perturbation which is 15 minutes in the arteriovenous shunt model and 60 minutes in the FeCl3 model of arterial injury and in the spontaneous thombosis model. Bolus injection volume is 1 mL/kg for i.v., and 5 mL/kg for p.o. and infusion volume is 3 mL/hr.

T2 sequence (P00747 581-810 limits assumed): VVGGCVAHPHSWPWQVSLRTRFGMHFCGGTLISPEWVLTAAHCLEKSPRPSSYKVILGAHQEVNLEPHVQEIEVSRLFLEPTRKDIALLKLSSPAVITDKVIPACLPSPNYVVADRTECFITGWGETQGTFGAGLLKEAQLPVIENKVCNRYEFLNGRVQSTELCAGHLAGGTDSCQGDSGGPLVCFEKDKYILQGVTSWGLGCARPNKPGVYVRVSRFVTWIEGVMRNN
T2 sequence (P00747 97-580 partner limits assumed): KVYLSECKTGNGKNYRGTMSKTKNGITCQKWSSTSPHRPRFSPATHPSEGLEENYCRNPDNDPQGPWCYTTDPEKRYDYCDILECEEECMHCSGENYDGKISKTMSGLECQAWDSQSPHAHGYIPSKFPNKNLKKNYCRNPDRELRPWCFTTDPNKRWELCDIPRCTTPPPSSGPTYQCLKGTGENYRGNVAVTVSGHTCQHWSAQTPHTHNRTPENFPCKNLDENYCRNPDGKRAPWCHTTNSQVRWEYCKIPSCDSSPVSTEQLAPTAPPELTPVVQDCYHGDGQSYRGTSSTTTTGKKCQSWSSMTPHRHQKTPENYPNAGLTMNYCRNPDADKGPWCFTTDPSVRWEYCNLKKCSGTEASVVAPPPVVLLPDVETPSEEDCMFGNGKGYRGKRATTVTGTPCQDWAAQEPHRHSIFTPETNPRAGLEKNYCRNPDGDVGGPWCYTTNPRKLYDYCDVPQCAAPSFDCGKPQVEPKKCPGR
T3 sequence (P00750 36-562): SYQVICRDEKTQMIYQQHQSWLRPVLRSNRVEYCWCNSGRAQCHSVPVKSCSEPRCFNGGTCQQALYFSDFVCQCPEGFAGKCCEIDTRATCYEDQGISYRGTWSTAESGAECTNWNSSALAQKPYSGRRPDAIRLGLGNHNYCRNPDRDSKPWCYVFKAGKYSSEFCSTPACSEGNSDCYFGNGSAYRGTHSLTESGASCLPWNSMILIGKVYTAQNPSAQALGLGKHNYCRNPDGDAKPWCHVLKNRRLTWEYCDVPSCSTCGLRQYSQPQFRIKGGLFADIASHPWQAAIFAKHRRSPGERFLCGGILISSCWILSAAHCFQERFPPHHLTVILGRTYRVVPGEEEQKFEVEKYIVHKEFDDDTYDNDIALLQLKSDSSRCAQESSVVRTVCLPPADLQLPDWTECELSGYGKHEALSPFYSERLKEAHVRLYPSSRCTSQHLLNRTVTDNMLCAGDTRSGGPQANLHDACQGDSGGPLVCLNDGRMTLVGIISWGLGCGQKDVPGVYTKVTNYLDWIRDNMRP

With `C[C@H]1C[C@@H](C(=O)N[C@H](C=O)CCCNC(=N)N)N(C(=O)[C@H]2CCCCN2)C1.Cl.Cl` (relative stereo) [Example 1, D-homoprolyl-L-cis-4-methyl-prolyl-L-argininal dihydrochloride], the “Enzyme Kass, Trypsin” value at Trypsin was 390 L/mol × 10^6. Moreover, the “Enzyme Kass, Plasmin” value on Plasmin is on record as 0.86 L/mol × 10^6. In addition, at t-PA, the “Enzyme Kass, t-PA” value amounted to 0.077 L/mol × 10^6. Moreover, in data set [1], the “% oral/i.v. activity (Rat)” value came to 47%.

As to `CC[C@H]1C[C@@H](C(=O)N[C@H](C=O)CCCNC(=N)N)N(C(=O)[C@H]2CCCCN2)C1.Cl.Cl` (relative stereo) [Example 2, D-homoprolyl-L-cis-4-ethyl-prolyl-L-argininal dihydrochloride], at Trypsin, the “Enzyme Kass, Trypsin” value turned out to be 520 L/mol × 10^6. Moreover, the “Enzyme Kass, Plasmin” value on Plasmin worked out at 1.0 L/mol × 10^6. The “Enzyme Kass, t-PA” value at t-PA was determined as 0.097 L/mol × 10^6. The “% oral/i.v. activity (Rat)” value in data set [1] is listed as 50%.

With `CCC[C@H]1C[C@@H](C(=O)N[C@H](C=O)CCCNC(=N)N)N(C(=O)[C@H]2CCCCN2)C1.Cl.Cl` (relative stereo) [Example 3, D-hPro-Pro(4-cis-n-propyl)-ArgH.2 HCl], the “Enzyme Kass, Trypsin” value at Trypsin was 260 L/mol × 10^6. For the same compound, the “Enzyme Kass, Plasmin” value at Plasmin is on record as 0.66 L/mol × 10^6. In addition, the “Enzyme Kass, t-PA” value at t-PA was 0.14 L/mol × 10^6. The “% oral/i.v. activity (Rat)” value in data set [1] turned out to be 45%.

As for `Cl.Cl.N=C(N)NCCC[C@@H](C=O)NC(=O)[C@@H]1C[C@H](Cc2ccccc2)CN1C(=O)[C@H]1CCCCN1` (relative stereo) [Example 5, D-hPro-Pro(4-cis-benzyl)-ArgH.2 HCl], at Trypsin, the “Enzyme Kass, Trypsin” value is listed as 150 L/mol × 10^6. Further, the “Enzyme Kass, Plasmin” value at Plasmin is 2.1 L/mol × 10^6. For the same compound, the “Enzyme Kass, t-PA” value on t-PA worked out at 0.057 L/mol × 10^6. In addition, the “% oral/i.v. activity (Rat)” value in data set [1] was 20%.

Turning to `Cl.Cl.N=C(N)NCCC[C@@H](C=O)NC(=O)[C@@H]1CC2CCCCC2N1C(=O)[C@H]1CCCCN1` (relative stereo) [Example 7, N-[(1-D-homoprolyl-cis-octahydro-1H-indol-2(S)-yl)carbonyl]-L-argininal dihydrochloride], on Trypsin, the “Enzyme Kass, Trypsin” value was 150 L/mol × 10^6. In addition, the “Enzyme Kass, Plasmin” value at Plasmin is recorded as 1.8 L/mol × 10^6. Besides, on t-PA, the “Enzyme Kass, t-PA” value is 0.053 L/mol × 10^6. The “% oral/i.v. activity (Rat)” value in data set [1] was 50%.

Turning to `Cl.Cl.N=C(N)NCCC[C@H](C=O)NC(=O)[C@@H]1C[C@H](Oc2ccccc2)CN1C(=O)[C@H]1CCCCN1` (relative stereo) [Example 8, D-homoprolyl-L-cis-4-phenoxy-L-prolyl-D-argininal dihydrochloride], the “Enzyme Kass, Trypsin” value on Trypsin is recorded as 270 L/mol × 10^6. Also, on Plasmin, the “Enzyme Kass, Plasmin” value is 2.9 L/mol × 10^6. Moreover, the “Enzyme Kass, t-PA” value on t-PA stood at 0.069 L/mol × 10^6. Moreover, in data set [1], the “% oral/i.v. activity (Rat)” value was found to be 20%.

Consider `Cl.Cl.Cl.N=C(N)NCCC[C@@H](C=O)NC(=O)[C@@H]1C[C@H](Oc2cccnc2)CN1C(=O)[C@H]1CCCCN1` (relative stereo) [Example 9, D-hPro-Pro(4-cis-(3-pyridyloxy))-ArgH.3 HCl], for which, on Trypsin, the “Enzyme Kass, Trypsin” value worked out at 130 L/mol × 10^6. Moreover, the “Enzyme Kass, Plasmin” value on Plasmin came to 1.7 L/mol × 10^6. Moreover, the “Enzyme Kass, t-PA” value at t-PA was determined as 0.055 L/mol × 10^6. Besides, in data set [1], the “% oral/i.v. activity (Rat)” value was 13%.

`Cl.Cl.Cl.N=C(N)NCCC[C@@H](C=O)NC(=O)[C@@H]1C[C@H](Oc2ccc(N)cc2)CN1C(=O)[C@H]1CCCCN1` (relative stereo) [Example 11, D-hPro-Pro(4-cis-(4-NH2-phenoxy))-ArgH.3 HCl]: the “Enzyme Kass, Trypsin” value on Trypsin worked out at 74 L/mol × 10^6. Further, the “Enzyme Kass, Plasmin” value at Plasmin turned out to be 1.4 L/mol × 10^6. Also, the “Enzyme Kass, t-PA” value on t-PA is 0.086 L/mol × 10^6. Also, the “% oral/i.v. activity (Rat)” value in data set [1] stood at 9%.

Turning to `Cl.Cl.N=C(N)NCCC[C@@H](C=O)NC(=O)[C@@H]1C[C@H](Oc2ccccc2)CN1C(=O)C1NCCC2CCCCC21` (relative stereo) [Example 15, D-1-Piq-Pro(4-cis-phenoxy)-ArgH.2 HCl], the “Enzyme Kass, Trypsin” value at Trypsin was 140 L/mol × 10^6. In addition, the “Enzyme Kass, Plasmin” value on Plasmin worked out at 5.1 L/mol × 10^6. At t-PA, the “Enzyme Kass, t-PA” value came out at 0.045 L/mol × 10^6. Also, in data set [1], the “% oral/i.v. activity (Rat)” value was found to be 5%.

Take `CCS(=O)(=O)N[C@@H](C(=O)N1[C@H](C(=O)N[C@H](C=O)CCCNC(=N)N)C[C@@H]2CCCC[C@@H]21)c1ccccc1.Cl` (relative stereo) [Example 22, EtSO2 -D-Phg-cis-Ohi-ArgH.HCl]: on Trypsin, the “Enzyme Kass, Trypsin” value turned out to be 312 L/mol × 10^6. Also, the “Enzyme Kass, Plasmin” value at Plasmin came to 27.6 L/mol × 10^6. The “Enzyme Kass, t-PA” value at t-PA was 0.085 L/mol × 10^6. Moreover, the “% oral/i.v. activity (Rat)” value in data set [1] came out at 30%.

For `Cl.Cl.N=C(N)NCCCC(C=O)NC(=O)C1CC2CCCCC2N1C(=O)C1NCCC2CCCCC21` [Example 20, D-1-cis-Piq-cis-Ohi-ArgH.2 HCl], the “Enzyme Kass, Trypsin” value on Trypsin (HCl) was 119 L/mol × 10^6. Besides, the “Enzyme Kass, Plasmin” value at Plasmin (HCl) came out at 3.67 L/mol × 10^6. In addition, the “Enzyme Kass, t-PA” value at t-PA (HCl) stood at 0.013 L/mol × 10^6. The “% oral/i.v. activity (Rat)” value in data set [1] amounted to 6%.
